Data on one compound can be found in publication PMC3123319, “Insights into the Regulatory Characteristics of the Mycobacterial Dephosphocoenzyme A Kinase: Implications for the Universal CoA Biosynthesis Pathway” (PLoS ONE, 2011).

For this assay, the target named is T1, dephosphocoenzyme A kinase (CoaE) (Mycobacterium tuberculosis, UniProt P9WPA3).
T1 sequence (P9WPA3 1-407): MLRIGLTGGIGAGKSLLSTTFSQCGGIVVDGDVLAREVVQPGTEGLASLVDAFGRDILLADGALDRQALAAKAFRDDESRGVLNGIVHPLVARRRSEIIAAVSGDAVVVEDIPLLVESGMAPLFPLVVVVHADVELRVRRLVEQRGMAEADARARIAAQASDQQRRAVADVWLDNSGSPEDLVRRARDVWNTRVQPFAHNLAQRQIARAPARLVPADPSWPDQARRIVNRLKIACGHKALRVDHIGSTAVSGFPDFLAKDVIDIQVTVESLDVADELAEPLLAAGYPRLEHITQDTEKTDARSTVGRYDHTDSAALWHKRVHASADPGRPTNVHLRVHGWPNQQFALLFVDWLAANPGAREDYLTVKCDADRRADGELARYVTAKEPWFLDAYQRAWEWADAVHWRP
Briefly: coupled PK-LDH spectrophotometric assay, Dixon plot; supported by tryptophan fluorescence quenching, SEC and limited proteolysis. Type of assay: biochemical.

The structures appear in SMILES notation.

In turn, `Nc1ccn([C@@H]2O[C@H](COP(=O)(O)OP(=O)(O)OP(=O)(O)O)[C@@H](O)[C@H]2O)c(=O)n1` [CTP] yielded a Ki of 34 µM.

As usually defined, the Ki is a measure of affinity in units of concentration, obtained from inhibition or displacement. A lower Ki goes with tighter binding.
